From ChEMBL document CHEMBL5257119, “New insight into the bioactivity of substituted benzimidazole derivatives: Repurposing from anti-HIV activity to cell migration inhibition targeting hnRNP M” (Bioorg Med Chem, 2023)
The source made the active and inactive calls. The calls are words filed in the database; no cut-off is given here.

Columns and labels:
A549 [1] = test: Downregulation of E-cadherin mRNA expression in human A549 cells at 20 uM measured for 1 day bt RT-qPCR analysis; format: functional, cell-based
A549 [2] = test: Downregulation of Zeb 1 mRNA expression in human A549 cells at 20 uM measured for 1 day bt RT-qPCR analysis; format: functional, cell-based
A549 [3] = test: Antimigratory activity against TGFbeta-stimulated human A549 cells assessed as inhibition of cell migration at 10 uM measured for 1 day by cell scratch assay; format: functional, cell-based
A549 [4] = test: Downregulation of Vimentin mRNA expression in human A549 cells at 20 uM measured for 1 day bt RT-qPCR analysis; format: functional, cell-based
[5] = target: T1, Heterogeneous nuclear ribonucleoprotein M (Homo sapiens) (UniProt P52272); test: Competitive inhibition of hnRNP M to in human A549 cells at 50 uM by immunoblotting analysis; format: cell-based
T1 sequence (whole entry): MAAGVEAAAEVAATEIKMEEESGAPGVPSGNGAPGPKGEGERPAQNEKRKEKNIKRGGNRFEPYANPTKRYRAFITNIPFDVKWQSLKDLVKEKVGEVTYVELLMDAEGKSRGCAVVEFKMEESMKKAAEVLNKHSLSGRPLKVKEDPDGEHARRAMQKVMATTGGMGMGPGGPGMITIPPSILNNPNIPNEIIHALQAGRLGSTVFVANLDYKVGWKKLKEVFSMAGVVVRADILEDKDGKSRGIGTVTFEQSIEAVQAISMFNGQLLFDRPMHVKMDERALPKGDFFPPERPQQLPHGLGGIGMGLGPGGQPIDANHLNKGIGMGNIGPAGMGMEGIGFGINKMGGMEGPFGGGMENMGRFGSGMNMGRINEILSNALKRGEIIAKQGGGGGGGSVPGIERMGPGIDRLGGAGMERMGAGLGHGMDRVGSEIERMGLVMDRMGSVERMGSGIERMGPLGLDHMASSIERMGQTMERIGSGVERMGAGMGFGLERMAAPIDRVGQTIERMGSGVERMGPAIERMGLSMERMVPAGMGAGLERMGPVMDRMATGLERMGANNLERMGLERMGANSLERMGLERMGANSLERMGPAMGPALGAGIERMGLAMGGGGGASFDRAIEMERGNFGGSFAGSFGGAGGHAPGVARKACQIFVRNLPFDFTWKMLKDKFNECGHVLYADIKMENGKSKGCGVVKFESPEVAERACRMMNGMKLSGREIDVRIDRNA

A549 [6] = test: Cytotoxicity against human A549 cells assessed as reduction in cell growth at 20 uM measured for 2 days by MTT assay; format: functional, cell-based; details: time 2.0 day
A549 [7] = test: Downregulation of CD44 mRNA expression in human A549 cells at 20 uM measured for 1 day bt RT-qPCR analysis; format: functional, cell-based
A549 [8] = test: Antimigratory activity against TGFbeta-stimulated human A549 cells assessed as inhibition of cell migration at 20 uM measured for 1 day by cell scratch assay; format: functional, cell-based
A549 [9] = test: Antimigratory activity against TGFbeta-stimulated human A549 cells assessed as inhibition of cell migration measured for 1 day by cell scratch assay; format: functional, cell-based
A549 [10] = test: Antimigratory activity against TGFbeta-stimulated human A549 cells assessed as inhibition of cell migration at 1 uM measured for 1 day by cell scratch assay; format: functional, cell-based

SMILES	Activity (A549 [3])	Activity (A549 [6])	Activity (A549 [8])	other results
Cc1noc(C)c1CSc1nc2cc(Cl)c(Cl)cc2[nH]1	Active	inactive	Active	Activity (A549 [1]): Active; Activity (A549 [2]): Active; Activity (A549 [4]): Active; inhibition call (active/inactive) [5]: Active; Activity (A549 [7]): Active
Cc1ccnc(SCc2nc3ccccc3s2)n1	Active	inactive		inhibition [5]: Active
Cc1noc(C)c1CSc1nc2ccccc2n1-c1ccccc1		inactive		Activity (A549 [9]): inactive
c1ccc(CSc2nc3ccccc3n2-c2ccccc2)cc1		inactive		
Cc1noc(C)c1CSc1nc2ccccc2[nH]1	Active	inactive	Active	Activity (A549 [1]): Active; Activity (A549 [4]): Active; inhibition call (active/inactive) [5]: Active; Activity (A549 [7]): Active
Cc1noc(C)c1CSc1nc2ccccc2s1		inactive		
c1ccc(-n2c(SCc3nc4ccccc4s3)nc3ccccc32)cc1		inactive		
Cc1noc(C)c1CSc1nc2ccccc2n1C		inactive		
c1ccc2[nH]c(SCc3nc4ccccc4s3)nc2c1	Active	inactive	Active	Activity (A549 [10]): Active; Activity (A549 [1]): Active; Activity (A549 [4]): Active; inhibition call (active/inactive) [5]: Active; Activity (A549 [7]): Active
COc1ccc(CSc2nc3ccccc3n2-c2ccccc2)cc1		inactive		
N#Cc1ccc(CSc2nc3ccccc3n2-c2ccccc2)cc1		inactive	Active	
Cn1c(SCc2nc3ccccc3s2)nc2ccccc21		inactive		
c1ccc(-n2c(SCc3ccccn3)nc3ccccc32)cc1		inactive		
